From patent US5506211A, “Genistein for use in inhibiting osteroclasts” (The UAB Research Foundation, priority 1994, dated 1996)
Values joined by “and” are separate entries in the source; they are usually repeats but may differ in a detail not shown here. Equal values may be shown once. Read-outs that look alike come from different tables or passages of the source.

Columns and labels:
avian osteoclasts [1] = assay: Bone resorption assay with [3H]-proline labeled bone and isolated osteoclasts; assay type: cell-based, Gallus domesticus; settings: for bone resorption: negative to concentration: quadruplicate assays; for IC (essentially complete): 72 h, read-out: concentration giving essentially complete inhibition of bone resorption
Protocol: Arian osteoclasts were isolated from medullary bone of calcium-starved white leghorn laying hens, Gallus domesticus, essentially as described by Blair et al. (1986). […] 90-98% of cell mass of sedimenting material consists of osteoclasts or essentially inert red cells (Zambonin-Zallone et al., 1982; Blair et al., 1986). Although rich in osteoclasts, these preparations contain significant numbers of all other components of bone, including osteoblasts and marrow cells.
Cells were plated on glass cover slips in 3 cm petri plates for fluorescence studies, or 15 cm petri plates for Western Blots, or 24 well plates (2 cm^2 /well) for resorption and binding studies. For resorption and binding studies, cells were plated at 5×10^3 /well. Cells were maintained in α-MEM containing 5% fetal calf serum, 5% chicken serum, 100 μg/ml streptomycin and 100 units/ml penicillin at 37° C. in humidified air with 5% CO2.
Where bone was used, this was devitalized fragmented rat bone (Blair et al., 1986) sieved to sizes indicated, usually 25-50 μm. For studies of osteoclasts attached to bone or tissue culture plates, 100 μg unlabeled bone per 2 cm^2 well was used, or 5 mg per 10 cm plate.
Bone resorption was measured using [^3 H]-proline labeled bone (Blair et al., 1986).

[2] = system: avian osteoclast membrane HCl transport; assay: Osteoclast membrane vesicle acid transport (acridine orange fluorescence quenching); assay type: biochemical, Gallus domesticus; settings: for activity on acid transport: 25 μM; for effect of valinomycin on inhibited vesicle acid transport: 120 mM KCl, 5 μM herbimycin, 20 μM genistein; for IC50: osteoclast membrane vesicles, read-out: half maximal inhibition of osteoclast acid transport / acid secretion; for reversal of inhibition by by-passing chloride conductivity with valinomycin: valinomycin 2 μM, potassium 120 mM
in vitro = settings: osteoclasts
Protocol: (§1) Since advantageous effects are seen at 1 μM, with half maximal effects at 2-3 μM, toxicity at 30 μM indicates a broad therapeutic margin. […] It should also be noted that doses would not be designed to achieve 100%, or even 50%, inhibition as osteoclasts are vital cells. Thus, 10-20% inhibition would likely result in a clear benefit to the patient without significant side effects, particularly as over-inhibtion would be compensated for by production of PTH.

osteoclasts [3] = assay: in vitro
Protocol: as §1

osteoclasts [4] = assay: Bone binding (adherence of labeled bone fragments to cultured osteoclasts); assay type: cell-based, Gallus domesticus
Protocol: Bone binding was determined by adherence of bone fragments to cultured cells (Carano et al., 1990). Briefly, this entailed adding labeled bone fragments to 3 day osteoclast cultures, incubating 4 h at 37° C. in a α-MEM with 5% fetal calf serum and 5% chicken serum, washing with PBS […], solubilizing the label overnight in 6N HCl, and scintillation counting.

Aqueous solubility = assay type: physicochemical
Protocol: (§2) The low aqueous solubility of genistein (<50 μg per ml) should also be considered. This might result in a maximum total absorption independent of dose. […] The present inventors have used this delivery method for studies performed in rats. […] NaTC is a naturally occurring bile salt and may have a role in the absorption of genistein released from food.

[5] = Biliary appearance of intestinally administered genistein in rats; assay type: in vivo; settings: rat, bile, intestinal administration with NaTC, over a 4 hr period, read-out: fraction of administered genistein appearing in bile
Protocol: as §2

[6] = Southeast Asians, 70 mg per day; cited from earlier work
avian osteoclasts [7] = assay: Bone resorption assay with [3H]-proline labeled bone and isolated osteoclasts; assay type: cell-based, Gallus domesticus; settings: Gallus gallus, Osteoclast, read-out: half maximal effect on bone resorption, 100 μg 3H-proline labeled bone, 10^4 osteoclasts

Structure (SMILES): O=c1c(-c2ccc(O)cc2)coc2cc(O)ccc12 [daidzein, 4',7-dihydroxyisoflavone]
- effect on bone resorption (avian osteoclasts [1]; 10 μM): no effect
- inhibition at 30 µM (avian osteoclasts [1]; Gallus gallus, Osteoclast, 30 μM): ~10%
- activity in the osteoclast assay systems (avian osteoclasts [1]; osteoclast assay systems disclosed): negligible activity
- bone resorption: negative to concentration (avian osteoclasts [1]): > 20 µM
- activity on acid transport [2]: inactive
- inhibition of osteoclast acid transport ([2]; 30 μM): < 20%

Structure (SMILES): N#CC(C#N)=Cc1cc(O)c(O)c(O)c1 [Tyrphostin A25]
- activity on acid transport [2]: inactive

Structure (SMILES): O=c1c(-c2ccc(O)cc2)coc2cc(O)cc(O)c12 [genistein, 5,7,4'-trihydroxyisoflavone]
- inhibition of bone resorption / degradation (FIG. 1) (avian osteoclasts [1]): significantly inhibited
- IC (essentially complete) (avian osteoclasts [1]; Gallus gallus, Osteoclast, at 3 days): 20 µM
- inhibition of bone resorption / degradation (FIG. 1) (avian osteoclasts [1]; listed as Genistein): significantly inhibits
- level effective at inhibiting osteoclast acid secretion [2]: less than 1 μM and < 0.27 μg/ml
- effect of valinomycin on inhibited vesicle acid transport [2]: valinomycin insensitive
- inhibition of osteoclast cell membrane acid transport (FIG. 2) ([2]; doses comparable to those inhibiting bone resorption): inhibited
- IC50 [2]: ~3000 nM
- reversal of inhibition by by-passing chloride conductivity with valinomycin [2]: not reversed
- MCC (in vitro; chicken): 30 µM
- selectivity ratio (in vitro): ~30
- time in which cells die (osteoclasts [3]; 30 μM genistein): 2 to 3 days
- effect on osteoclast binding to bone (osteoclasts [4]): alter the ability of osteoclasts to bind to bone
- aqueous solubility when mixed with bile salt (Aqueous solubility; mixed with sodium taurocholate (NaTC)): substantially enhanced
- solubility (Aqueous solubility; water): < 50 µg/mL
- dose excreted at 4 h [5]: 40 to 50%
- ill effects of dietary intake [6]: without obvious ill effects

Structure (SMILES): CO[C@H]1[C@@H](OC)C[C@H](C)[C@@H](OC)C2=CC(=O)C=C(NC(=O)/C(C)=C/C=C\[C@H](OC)[C@@H](OC(N)=O)/C(C)=C/[C@@H]1C)C2=O [Herbimycin A]
- IC (essentially complete) (avian osteoclasts [1]; Gallus gallus, Osteoclast): 1 µM
- effective dose on osteoclast acid secretion relative to genistein, fold lower [2]: about 10 fold
- effect of valinomycin on inhibited vesicle acid transport [2]: restored acid transport activity
- IC50 [2]: ~2000 nM
- reversal of inhibition by by-passing chloride conductivity with valinomycin [2]: partially reversed
- toxicity relative to genistein (osteoclasts [3]): about ten times more toxic
- toxicity threshold relative to genistein, fold lower (osteoclasts [3]; chicken): about 10 fold
- IC50 (avian osteoclasts [7]): 300 to 500 nM

Structure (SMILES): N#CC(=Cc1ccc(O)c(O)c1)C(N)=S [Tyrphostin A47]
- bone resorption: negative to concentration (avian osteoclasts [1]): > 20 µM
- IC50 [2]: 12000 nM
